Reference: the supplement of paper PMC10307832

Legend:
Test in all cases: relative viability (nuclei count vs DMSO), 5 days (fraction); higher = more cells survive
Cediranib + Vorinostat = compound: COc1cc2c(Oc3ccc4[nH]c(C)cc4c3F)ncnc2cc1OCCCN1CCCC1 [Cediranib] + O=C(CCCCCCC(=O)Nc1ccccc1)NO [Vorinostat] (partner 1 µM)
Outline: (§1)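 Values are medians from duplicate plates. Each reflects relative viability, defined as the nuclei count of treated wells over that of vehicle wells. Lung cancer cell lines in 1536-well plates were pin-tool dosed one day after seeding with one drug alone or with a fixed anchor-drug dose plus five library-drug doses (not always all listed) in √10 steps, then fixed, stained and imaged at 4× after 5 days.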

Decitabine + Trametinib = compound: Nc1ncn([C@H]2C[C@H](O)[C@@H](CO)O2)c(=O)n1 [Decitabine] + CC(=O)Nc1cccc(-n2c(=O)n(C3CC3)c(=O)c3c(Nc4ccc(I)cc4F)n(C)c(=O)c(C)c32)c1 [Trametinib] (partner 0.02 µM)
Outline: as §1

[1] = compound: O=C(C[C@H]1NCCC[C@@H]1O)Cn1cnc2cc(Br)c(Cl)cc2c1=O (racemic) [Halofuginone] + CC(=O)c1c(C)c2cnc(Nc3ccc(N4CCNCC4)cn3)nc2n(C2CCCC2)c1=O [Palbociclib] (partner 0.5 µM)
Outline: as §1

Halofuginone + Alpelisib = compound: O=C(C[C@H]1NCCC[C@@H]1O)Cn1cnc2cc(Br)c(Cl)cc2c1=O (racemic) [Halofuginone] + Cc1nc(NC(=O)N2CCC[C@H]2C(N)=O)sc1-c1ccnc(C(C)(C)C(F)(F)F)c1 [Alpelisib] (partner 2 µM)
Outline: as §1

UMC-11
relative viability (Cediranib + Vorinostat; first compound 0.04 µM): 0.396 | relative viability (Cediranib + Vorinostat; first compound 0.1265 µM): 0.256 | relative viability (Cediranib + Vorinostat; first compound 0.4 µM): 0.345 | relative viability (Cediranib + Vorinostat; first compound 1.265 µM): 0.392 | relative viability (Cediranib + Vorinostat; first compound 4 µM): 0.412 | relative viability (Decitabine + Trametinib; first compound 0.04 µM): 0.697 | relative viability (Decitabine + Trametinib; first compound 0.1265 µM): 0.609 | relative viability (Decitabine + Trametinib; first compound 0.4 µM): 0.4 | relative viability (Decitabine + Trametinib; first compound 1.265 µM): 0.331 | relative viability (Decitabine + Trametinib; first compound 4 µM): 0.367 | relative viability ([1]; first compound 0.001 µM): 0.359 | relative viability ([1]; first compound 0.003162 µM): 0.306 | relative viability ([1]; first compound 0.01 µM): 0.322 | relative viability ([1]; first compound 0.03162 µM): 0.316 | relative viability ([1]; first compound 0.1 µM): 0.279 | relative viability (Halofuginone + Alpelisib; first compound 0.001 µM): 1.04 | relative viability (Halofuginone + Alpelisib; first compound 0.003162 µM): 0.909 | relative viability (Halofuginone + Alpelisib; first compound 0.01 µM): 0.989 | relative viability (Halofuginone + Alpelisib; first compound 0.03162 µM): 0.885 | relative viability (Halofuginone + Alpelisib; first compound 0.1 µM): 0.457
